In US20220395465A1, “STING AGONIST COMPRISING EXOSOMES COMBINED WITH IL-12 DISPLAYING EXOSOMES FOR TREATING A TUMOUR” (CODIAK BIOSCIENCES, INC., priority 2019, published 2022):

Test system: MC38 tumor
Assay: MC38 mouse tumor model, tumor growth, complete responses and rechallenge
Format: in vivo, mice
Conditions: equivalent IL-12 dose
Description: Potency was assessed in vitro using human PBMCs or murine splenocytes and in vivo using mouse subcutaneous tumor models. Local versus systemic pharmacology was determined with intratumoral injection in mice and subcutaneous injection in monkeys. All studies were benchmarked against recombinant IL-12 (rIL-12).
In addition, exoIL-12 administration led to enhanced intratumoral IFN-gamma AUC by about 4-fold as compared to recombinant IL-12 (FIG. 7B). […] This correlated with dose-dependent increases in tumor antigen-specific CD8+ T cells, which increased nearly 4-fold in exoIL-12 treated mice (FIG. 7E).
Suppression of tumor growth was again observed following MC38 rechallenge (FIG. 7D).

rIL-12: recombinant IL-12, benchmark in all studies
complete responses (share of mice): 0%
